These results are taken from PMC8624133, “10th Trends in Medical Mycology Held on 8 to 11 October 2021, Aberdeen, Scotland, Organized by the European Confederation of Medical Mycology (ECMM)” (Journal of Fungi, 2021).

Data set [1] has as its system invasive and mucocutaneous fungal infections. Put plainly: FURI and CARES open-label studies combined. The format is in vivo, human. The following applies: 84 patients. From the text:
Methods: FURI subjects were eligible for enrollment if they had proven or probable severe mucocutaneous candidiasis, invasive candidiasis, invasive aspergillosis, or other fungal diseases with evidence of treatment failure, intolerance, or toxicity related to a currently approved standard-of-care antifungal treatment or if they were unable to receive an approved oral antifungal option (e.g., susceptibility of the organism) and a continued IV antifungal therapy was clinically undesirable or unfeasible.

Data set [2] concerns refractory fungal disease. Kind of data set: FURI Phase 3 open-label study, refractory subset. The format is in vivo, human. The following applies: 44 refractory patients. The text has this:
Methods: FURI patients were eligible for enrollment if they have proven or probable, severe mucocutaneous candidiasis, invasive candidiasis or invasive aspergillosis and documented evidence of failure, intolerance, or toxicity related to a currently approved standard-of-care antifungal treatment or could not receive approved oral antifungal options (e.g., susceptibility of the organism) and continued IV antifungal therapy was clinically undesirable or unfeasible.

In a further data set the test system is Other species of Candida. In kind it is cell-based, Candida spp.
The next data set has as its system C. krusei. The format is cell-based, Candida krusei.
In a further data set the test system is C. parapsilosis. The format is cell-based, Candida parapsilosis.
A further data set relates to C. albicans. The format is cell-based, Candida albicans.
The test system of another data set is C. glabrata. In kind it is cell-based, Candida glabrata.
Another data set has as its system C. tropicalis. In kind it is cell-based, Candida tropicalis.
A further data set concerns Sporothrix brasiliensis. Kind of data set: Murine subcutaneous sporotrichosis model. In kind it is in vivo, Balb/c mice. As to the method:
Materials & Methods: 50 Balb/c mice, male, five to seven-week-old, were subcutaneous infected (left footpad) by a clinical isolate of S. brasiliensis (5.4 × 10^7 yeast/mice). Treatments started seven days post-inoculation (p.i) in all five groups (10 mice/each): G1 control group (placebo—receiving just the diluent of the drugs), G2 treatment group (itraconazole—ITZ 50 mg/kg); G3 to G5 DD treatment groups, 1, 5 and 10 mg/kg, respectively. All mice were treated once a day by oral gavage, for 30 consecutive days. Physical conditions and behavior were daily evaluated, and individual weight was weekly determined. At the 32nd day p.i. (48 h after the end of the treatments) animals were euthanasied and lung, liver, brain, kidneys, testicle and footpad were recovered aseptically and homogenized to mycological analysis. Fungal burden in each organ was measured by quantitatively counting colony-forming units (CFU). The determination of colony forming units (CFU)/gram of tissue (g) of S. brasiliensis in internal organs of groups were compared by non-parametric tests using Kruskal-Wallis combined with Wilcoxon. The weight loss assay was calculated considering the percentage of loss and/or increase between the value corresponding to the fungal inoculation day and to the end of the treatment.

In another data set the test system is Rhizopus oryzae. Put plainly: Pandemic Box screening, EUCAST protocol. The format is cell-based. The note with it: for inhibition of R. oryzae growth: 5 µM. As for the experimental part: (§1) Materials & Methods: An initial screening of the 400 compounds (5 µM) in this collection was performed with the Rhizopus oryzae, according to the EUCAST protocol. Compounds with activity against R. oryzae have also been tested against other mucormycosis etiological agents (Rhizopus microsporus e Rhizopus stolonifer) at concentrations ranging from 0.08 µM to 20 µM.

Data set [3] relates to P. insidiosum (strains CBS101555, P38, ATCC90586). Kind of data set: Radial growth assay. In kind it is cell-based, Pythium insidiosum. The note with it: for reduction of growth compared to the control: colony radial growth. As to the method:
These agriculture fungicides were initially evaluated for inhibitory effect against 3 phylogenetical distinct strains of P. insidiosum (i.e., strains CBS101555, P38, and ATCC90586) isolated from humans and animal with pythiosis in Thailand, Brazil, and United States. A radial growth assay was employed for the in vitro susceptibility analysis. […] The percentage of the colony’s radial growth of the treated organism was calculated in relation to the untreated control. The microscopic changes of the microorganisms were recorded.

In the next data set the test system is McLDM strains. Put plainly: EUCAST MIC, S. cerevisiae overexpressing M. circinelloides LDM, resistance phenotypes. In kind it is cell-based, Saccharomyces cerevisiae.
In the next data set the test system is Trichophyton spp. Kind of data set: Agar-based screening method. In kind it is cell-based. The note with it: 0.5 McF, 5 days, 30 °C. As to the method:
Inter-experimental variation was evaluated by testing 10 isolates on three different days. Single-centre validation: After determining the optimal conditions for the agar screening method, 112 molecularly identified Trichophyton spp. clinical isolates were tested.

For data set [4], the system named is Exophiala phaeomuriformis. Put plainly: MIC, CLSI M27-A3. The format is cell-based. The note with it: read-out: MIC values. As to the method:
Materials & Methods: The aviation kerosone samples came from an aviation company in Porto Alegre, state of Rio Grande do Sul, Brazil. The fungi isolation was carried out using the modified ASTM D6974-09 Standard. In this procedure, 500 mL kerosene samples were filtered, in triplicate, under aseptic conditions, under vacuum, using a 0.22 μm membrane (Millipore). After filtering, the membranes were deposited in potato dextrose agar culture medium. The plates were incubated in an oven at 30 °C for seven days. After this period, the colonies were isolated in new culture media for purification of the isolates. Molecular identification was performed through the sequencing of ITS DNA regions. The profile of sensitivity to clinical antifungals was assessed following protocols M27-A3 of the Clinical and Laboratory Standards Institute (CLSI).

The next data set relates to three Rhizopus species. Kind of data set: MIC and fungicidal activity. The note with it: for MIC: 0.08 µM to 20 µM tested. The format is cell-based, Rhizopus oryzae, R. microsporus, R. stolonifer. As to the method: as §1
The subject of data set [5] is clinical dermatophyte isolates. Kind of data set: Inhibition of dermatophyte biofilm formation. In kind it is cell-based. As to the method: Materials and Methods: The study population consisted of 50 dermatophyte isolates that were collected from 2019 to 2020 from patients referred to the two mycology laboratory of Shiraz, Iran. The isolates were identified by ITS gene region sequencing. The suspension (equivalent to 0.5 McFarland) of the isolates was used to evaluate the ability of the isolates to form biofilms and also the effect of itraconazole, terbinafine and griseofulvin at concentrations of 2–32 μg/mL on inhibiting biofilm formation. Two optical microscope and a scanning electron microscope were used to study the microscopic structure of biofilms formed on the surface of 96-well plate wells.

For data set [6], the system named is A. fumigatus (resistant to posaconazole strain v79-63). Put plainly: Neutropenic animal model of invasive pulmonary aspergillosis. The format is in vivo, CD-1 mice.

Converted amounts (≈) assume the structure as drawn. A value given as a limit tells only on which side of the number the result lay.

Regarding `CC(C)[C@@H](C)[C@@]1(C)CC[C@]2(C)[C@H]3CC[C@@H]4[C@@]5(COC[C@@]4(C)[C@@H](OC[C@](C)(N)C(C)(C)C)[C@H](n4ncnc4-c4ccncc4)C5)C3=CC[C@@]2(C)[C@@H]1C(=O)O` [ibrexafungerp, Ibrexafungerp], in data set [1], the progression of disease is listed as 5.9% and the stable disease turned out to be 27.1%. Also, in [1] (oral, DRC-determined), the “complete response, partial response and clinical improvement” value is listed as 65.1%. In data set [2], this molecule registered a progression of disease of 6.8% and a stable disease of 22.7%. Also, the “complete response, partial response or clinical improvement” value in data set [2] (oral, DRC-determined) was 59.1%.
In the case of `Nc1nc(=O)[nH]cc1F` [5-FC, 5-flucytosine], the “I (intermediate) isolates, n (%)” value in the data set with Other species of Candida is on record as 0 (0%); in the data set on C. krusei, 3 (42.9%); in the data set with C. parapsilosis, 1 (0.6%); in the data set on C. albicans it was 1 (0.5%); with C. glabrata, 0 (0%); in the data set with C. tropicalis, 0 (0%). For the same molecule, the “R (resistant) isolates, n (%)” value in the data set on Other species of Candida is recorded as 0 (0%); in the data set with C. krusei it was 3 (42.9%); in the data set on C. parapsilosis, 2 (01.2%); in the data set with C. albicans, 2 (1%); in the data set with C. glabrata, 0 (0%); in the data set on C. tropicalis, 0 (0%). Also, the “S (sensitive) isolates, n (%)” value in the data set on Other species of Candida is reported as 26 (100%); in the data set with C. krusei, 1 (14.3%); in the data set with C. parapsilosis, 170 (98.3%); in the data set with C. albicans it was 199 (98.5%); in the data set with C. glabrata it was 71 (100%); in the data set on C. tropicalis it was 57 (100%).
As to `c1ccc([Se][Se]c2ccccc2)cc1` [DD, Diphenyl diselenide], the “weight loss during treatment vs control group” value in the data set with Sporothrix brasiliensis (DD 5 mg/kg) is “statistically higher rate of weight loss”. Moreover, the “fungal burden of internal organs vs placebo group” value in the data set with Sporothrix brasiliensis (oral gavage once a day, 30 days, ITZ 50 mg/kg, DD 1, 5 or 10 mg/kg) is reported as “higher fungal burdens”.
In the case of `Oc1cccc(C(Nc2nccs2)c2ccc3cccnc3c2O)c1` (centres unmarked) [MMV642550], the “inhibition of R. oryzae growth” value with Rhizopus oryzae is “more than 50%”.
As to `Cc1cccc(C)c1C(=O)Nc1nc(-c2ccccn2)cc2ccccc12` [MMV1581558], the “inhibition of R. oryzae growth” value in the data set with Rhizopus oryzae is “more than 50%”.
On to `CSC1=N[C@@](C)(c2ccccc2)C(=O)N1Nc1ccccc1` [fenamidone], for which the MIC in data set [3] (Pythium insidiosum) came out at 64 µg/mL (≈ 206 µM). Besides, in data set [3], the “reduction of growth compared to the control” value is listed as “at least 70%”.
For the molecule `CC(C)(C)C(O)C(Oc1ccc(Cl)cc1)n1cncn1` (centres unmarked) [TDM, triadimenol], the resistance characteristics result in the data set on McLDM strains was “same resistance characteristics as FLC”.
Regarding `COc1cc(NS(=O)(=O)c2ccc(C)cc2)c2ncccc2c1` [MMV098836], the “inhibition of R. oryzae growth” value in the data set on Rhizopus oryzae was “more than 50%”.
Take `c1cc(CN2CCCNCCNCCCNCC2)ccc1CN1CCCNCCNCCCNCC1` [MMV1580502]: the “inhibition of R. oryzae growth” value in the data set with Rhizopus oryzae was “more than 50%”.
As for `Oc1c(C(Nc2nc3ccccc3s2)c2ccc(OC(F)F)cc2)ccc2cccnc12` (centres unmarked) [MMV019724], the “inhibition of R. oryzae growth” value in the data set on Rhizopus oryzae is on record as “more than 50%”.
For the molecule `COc1ccc(C(=CC(=O)N2CCOCC2)c2ccc(Cl)cc2)cc1OC` [dimethomorph], the inhibition entry in data set [3] was “no significant inhibition”.
With `Cc1cc(C(F)(F)F)nn1CC(=O)N1CCC(c2nc(C3=NOC(c4c(F)cccc4F)C3)cs2)CC1` (centres unmarked) [oxathiapiprolin], in data set [3], the inhibition entry was “no significant inhibition”.
As to `CCC(C)(C)c1ccc(CC(C)CN2C[C@@H](C)O[C@@H](C)C2)cc1` (some centres unmarked) [amorolfine], the “optimal agar concentration preventing growth of WT isolates” value in the data set with Trichophyton spp. amounted to 0.5 mg/L.
For `CC(=O)N1CCN(c2ccc(OCC3COC(Cn4ccnc4)(c4ccc(Cl)cc4Cl)O3)cc2)CC1` (centres unmarked) [ketoconazole], the MIC in data set [4] turned out to be 125 µg/mL (≈ 235 µM).
As to `CCc1nc(N)nc(N)c1C#CC(C)c1cc(OC)cc(-c2ccncc2)c1` (centres unmarked) [MMV1580844], in the data set with three Rhizopus species, the fungicidal activity entry is listed as “did not show fungicidal activity” and the minimal inhibitory concentration (MIC) stood at 0.08 µM (≈ 0.0299 µg/mL). The “inhibition of R. oryzae growth” value in the data set with Rhizopus oryzae is listed as “more than 50%”.
`CCCCC(CC)CNC(=N)NC(=N)NCCCCCCNC(=N)NC(=N)NCC(CC)CCCC` (centres unmarked) [MMV396785, Alexidine]: the fungicidal activity in the data set with three Rhizopus species is 10 µM. The minimum inhibitory concentration (MIC) in the data set on three Rhizopus species (Rhizopus) lay in the range of 0.63 to 1.25 µM (≈ 0.321 to 0.636 µg/mL). The inhibition at 5 µM with Rhizopus oryzae (Rhizopus arrhizus, read-out: inhibition of R. oryzae growth) was greater than 50%.
Regarding `O=C(NCc1ncc(C(F)(F)F)cc1Cl)c1c(Cl)cccc1Cl` [Fluopicolide, fluopicolide], in data set [3], the “reduction of growth compared to the control” value is recorded as “at least 70%”. For the same molecule, the MICs in data set [3] (tested at 0.25–[…], 3 biological replicates) came out at 8 µg/mL.
As for `COC1=CC(=O)C[C@@H](C)[C@]12Oc1c(Cl)c(OC)cc(OC)c1C2=O` [griseofluvin, griseofulvin], the IC50 in [5] (inhibition of biofilm formation, read-out: mean concentrations of IC50) came out at 3.18 µg/mL (≈ 9.01 µM). The “samples with IC50 in concentration <2” value in data set [5] (tested at 2–32 μg/mL) worked out at 66%.

B1: IL-18: Mouse cytokine IL-18 (protein, UniProt P70380 36-192, looked up)
Interleukin-18: NFGRLHCTTAVIRNINDQVLFVDKRQPVFEDMTDIDQSASEPQTRLIIYMYKDSEVRGLAVTLSVKDSKMSTLSCKNKIISFEEMDPPENIDDIQSDLIFFQKRVPGHNKMEFESSLYEGHFLACQKEDDAFKLILKKKDENGDKSVMFTLTNLHQS
As to B1, the log10CFU/lung in data set [6] (mean ± SEM, 3 animals treated for 3 d, placebo 6.1 ± 0.08) was 4.82 ± 0.44 log10CFU/lung. This molecule also returned a survival rates in data set [6] (survival recorded until 15 d, IL-18 10 ng/mouse intranasally daily -2 d till +7 d, posaconazole 16 mg/kg/day, groups of 10, control 20%) of 56%.

In general, MIC refers to the lowest concentration that inhibits growth of the organism. What is called inhibition is the drop in the measured response relative to a control, in per cent.
